# Laboratory results reported in US8501810B2, “Guanidino acetic acid used as an animal food additive” (AlzChem Trostberg GmbH, priority 2004, dated 2013).
# Legend:
# [1] = Feed for growing hens, additive in air-dried feed, 42 days' growing duration; format: in vivo
# Source text: 1.4 Feed for Growing Hens
# In addition, with this feed additive, the feed consumption decreased by about 6% compared with previous feeding methods.
# In addition, it was found in this experiment that even an addition of 0.032% by weight of guanidinoacetic acid (0.32 g/kg) to the air-dried feed increased the final weight by 3% for 42 days' growing duration. The feed consumption decreased by 3% compared with previous feeding methods.
# [2] = Comparative example: creatine in the feed for growing hens, 41 days growing duration; format: in vivo; conditions: 0.2% (2 g/kg) in air-dried feed
# Source text: 2. Comparative Example (According to EP 920 689)
# The effect of the addition of creatine in the feed for growing hens was investigated.
# The feed consumption decreased by about 2-3% compared with previous feeding methods.
# [3] = Stability in acidic aqueous solution; format: physicochemical
# Source text: Thus in contrast to creatine, the majority of the compounds administered or fed, guanidinoacetic acid and/or salts of guanidinoacetic acid, are not degraded by instability reactions, for example in the stomach, and excreted before resorption, but are in fact available in the corresponding physiological metabolic reactions.
# [4] = 1.112% in base feed, also in combination with methionine; cited from earlier work
# [5] = young rats, cited from earlier work
# [6] = test system: Staphyllococcus aureus; conditions: cited from earlier work
# [7] = control group, 0.04% by weight (0.4 g/kg) in air-dried feed
# [8] = 0.032% by weight (0.32 g/kg) in air-dried feed
# [9] = 0.092% by weight (0.92 g/kg) in air-dried feed
smiles,measurement,setting,value
"CN(CC(=O)O)C(=N)N.O [creatine monohydrate, reference compound]",decrease in feed consumption,[1]; [7],no decreased feed consumption
same,increase in the final weight,[1]; [7],no increase in the final weight
CN(CC(=O)O)C(=N)N [creatine],decrease in feed consumption compared with previous feeding methods,[2],2-3%
same,increase in the final weight compared with previous feeding methods,[2],4%
same,meat quality,[2],improved quality
same,nature of the increase in weight (lean-body mass index),[2],"only by meat gain, but not by fat gain"
N=C(N)NCC(=O)O [guanidinoacetic acid],decrease in feed consumption compared with previous feeding methods,[1]; [8],3%
same,increase in the final weight,[1]; [8],3%
same,decrease in feed consumption compared with previous feeding methods,[1]; [9],about 6%
same,increase in the final weight compared with previous feeding methods,[1]; [9],7%
same,meat quality,[1]; [9],improved quality
same,nature of the increase in weight (lean-body mass index),[1]; [9],"solely by meat gain, but not by fat gain or water accumulation"
same,stability in acidic aqueous solution in contrast to creatine and creatine monohydrate,[3],significantly higher stability
same,feed utilization,[4],significant decrease
same,weight gain,[4],significant decrease
same,creatine content in the skeletal musculature and in the heart muscle,[5]; additional administration of methionine,increased
same,effect on the muscle creatine level,[5]; in combination with folacin and vitamin B12,no effect
same,effect on growth,[5],inhibitory activity
same,use against bacterial infections in animal experiments,[6],successfully used
